Data taken from patent CN105777727A, “2-噻吩吡啶类化合物及其用途” (Shenyang Sinochem Agrochemicals R&D Co Ltd, priority 2014, dated 2016).

Test system: cucumber anthracnose (黄瓜炭疽病)
Experiment: In vivo protective activity against cucumber anthracnose (potted plants, inoculation 24 h after spraying)

SMILES: O=C(NCCc1ccc(F)cc1)c1ccc(-c2cccs2)nc1CCl [24.3]
- control effect (6.5 mg/L): 98%
- control effect (25 mg/L): 100%
- control effect (100 mg/L): > 98%
- control effect (400 mg/L): 100%
